Values of other authors in article PMC8513935.

Columns and labels:
[1] = log P octanol/water from commercial databases, averaged (the ESI); conditions: Octanol (wet), 25 C
[2] = experimental, compiled by the authors from the literature (the ESI cites the sources)
[3] = derived by the authors as gas->solvent minus gas->water (a hypothetical dry solvent; the ESI), not a two-phase measurement

## C=CCCCCC
[1]
  log K of transfer, water to solvent: 3.99 log10 K
[2]; Butyronitrile, 25 C
  log K of transfer, gas to solvent: 2.87 log10 K
[2]; Hexadecane, 25 C
  log K of transfer, gas to solvent: 3.06 log10 K
[2]; Pentan-1-ol, 25 C
  log K of transfer, gas to solvent: 2.88 log10 K
[2]; Propionitrile, 25 C
  log K of transfer, gas to solvent: 2.78 log10 K
[2]; Water, 25 C
  log K of transfer, gas to solvent: -1.22 log10 K
[3]; Butyronitrile, 25 C
  log K of transfer, water to solvent: 4.09 log10 K
[3]; Hexadecane, 25 C
  log K of transfer, water to solvent: 4.28 log10 K
[3]; Pentan-1-ol, 25 C
  log K of transfer, water to solvent: 4.1 log10 K
[3]; Propionitrile, 25 C
  log K of transfer, water to solvent: 4 log10 K

## CCC(C)CC
[1]
  log K of transfer, water to solvent: 3.6 log10 K
[2]; Butan-1-ol, 25 C
  log K of transfer, gas to solvent: 2.34 log10 K
[2]; Hexadecane, 25 C
  log K of transfer, gas to solvent: 2.58 log10 K
[2]; Pentan-1-ol, 25 C
  log K of transfer, gas to solvent: 2.44 log10 K
[2]; Water, 25 C
  log K of transfer, gas to solvent: -1.84 log10 K
[3]; Butan-1-ol, 25 C
  log K of transfer, water to solvent: 4.18 log10 K
[3]; Hexadecane, 25 C
  log K of transfer, water to solvent: 4.42 log10 K
[3]; Pentan-1-ol, 25 C
  log K of transfer, water to solvent: 4.28 log10 K

## CCCCCl
[1]
  log K of transfer, water to solvent: 2.64 log10 K
[2]; 1,2-Dichloroethane, 25 C
  log K of transfer, gas to solvent: 3.25 log10 K
[2]; 2-Methylpropan-1-ol, 25 C
  log K of transfer, gas to solvent: 2.73 log10 K
[2]; 2-Methylpropan-2-ol, 25 C
  log K of transfer, gas to solvent: 2.71 log10 K
[2]; Butan-2-ol, 25 C
  log K of transfer, gas to solvent: 2.73 log10 K
[2]; CCl4, 25 C
  log K of transfer, gas to solvent: 3.16 log10 K
[2]; Chlorobenzene, 25 C
  log K of transfer, gas to solvent: 3.19 log10 K
[2]; Decan-1-ol, 25 C
  log K of transfer, gas to solvent: 2.69 log10 K
[2]; Di-n-butyl ether, 25 C
  log K of transfer, gas to solvent: 3.01 log10 K
[2]; Diethyl Ether, 25 C
  log K of transfer, gas to solvent: 3.21 log10 K
[2]; Hexadecane, 25 C
  log K of transfer, gas to solvent: 2.72 log10 K
[2]; Hexane, 25 C
  log K of transfer, gas to solvent: 2.95 log10 K
[2]; Octan-1-ol, 25 C
  log K of transfer, gas to solvent: 2.72 log10 K
[2]; Propan-1-ol, 25 C
  log K of transfer, gas to solvent: 2.63 log10 K
[2]; Propanone, 25 C
  log K of transfer, gas to solvent: 3.12 log10 K
[2]; Water, 25 C
  log K of transfer, gas to solvent: 0.12 log10 K
[3]; 1,2-Dichloroethane, 25 C
  log K of transfer, water to solvent: 3.13 log10 K
[3]; 2-Methylpropan-1-ol, 25 C
  log K of transfer, water to solvent: 2.61 log10 K
[3]; 2-Methylpropan-2-ol, 25 C
  log K of transfer, water to solvent: 2.59 log10 K
[3]; Acetone, 25 C
  log K of transfer, water to solvent: 3 log10 K
[3]; Butan-2-ol, 25 C
  log K of transfer, water to solvent: 2.61 log10 K
[3]; CCl4, 25 C
  log K of transfer, water to solvent: 3.04 log10 K
[3]; Chlorobenzene, 25 C
  log K of transfer, water to solvent: 3.07 log10 K
[3]; Decan-1-ol, 25 C
  log K of transfer, water to solvent: 2.57 log10 K
[3]; Di-n-butyl ether, 25 C
  log K of transfer, water to solvent: 2.89 log10 K
[3]; Diethyl Ether, 25 C
  log K of transfer, water to solvent: 3.09 log10 K
[3]; Hexadecane, 25 C
  log K of transfer, water to solvent: 2.6 log10 K
[3]; Hexane, 25 C
  log K of transfer, water to solvent: 2.83 log10 K
[3]; Octan-1-ol(dry), 25 C
  log K of transfer, water to solvent: 2.6 log10 K
[3]; Propan-1-ol, 25 C
  log K of transfer, water to solvent: 2.51 log10 K

## CCCCCCCC
[1]
  log K of transfer, water to solvent: 5.15 log10 K
[2]; 1,2-Dichloroethane, 25 C
  log K of transfer, gas to solvent: 3.44 log10 K
[2]; 2-Methylpropan-2-ol, 25 C
  log K of transfer, gas to solvent: 3.39 log10 K
[2]; 3-Methylbutan-1-ol, 25 C
  log K of transfer, gas to solvent: 3.4 log10 K
[2]; Acetonitrile, 25 C
  log K of transfer, gas to solvent: 2.68 log10 K
[2]; Benzene, 25 C
  log K of transfer, gas to solvent: 3.92 log10 K
[2]; Butan-1-ol, 25 C
  log K of transfer, gas to solvent: 3.26 log10 K
[2]; Butanone, 25 C
  log K of transfer, gas to solvent: 3.45 log10 K
[2]; Butyronitrile, 25 C
  log K of transfer, gas to solvent: 3.21 log10 K
[2]; CCl4, 25 C
  log K of transfer, gas to solvent: 4.05 log10 K
[2]; Chlorobenzene, 25 C
  log K of transfer, gas to solvent: 3.99 log10 K
[2]; Chloroform, 25 C
  log K of transfer, gas to solvent: 3.9 log10 K
[2]; Cyclohexane, 25 C
  log K of transfer, gas to solvent: 4.07 log10 K
[2]; Cyclohexanone, 25 C
  log K of transfer, gas to solvent: 3.42 log10 K
[2]; Decan-1-ol, 25 C
  log K of transfer, gas to solvent: 3.32 log10 K
[2]; Di-n-butyl ether, 25 C
  log K of transfer, gas to solvent: 3.85 log10 K
[2]; Dichloromethane, 25 C
  log K of transfer, gas to solvent: 3.72 log10 K
[2]; Diethyl Ether, 25 C
  log K of transfer, gas to solvent: 3.92 log10 K
[2]; Ethanol, 25 C
  log K of transfer, gas to solvent: 3.17 log10 K
[2]; Hexadecane, 25 C
  log K of transfer, gas to solvent: 3.68 log10 K
[2]; Hexane, 25 C
  log K of transfer, gas to solvent: 3.97 log10 K
[2]; Methanol, 25 C
  log K of transfer, gas to solvent: 2.82 log10 K
[2]; Octan-1-ol, 25 C
  log K of transfer, gas to solvent: 3.3 log10 K
[2]; Pentan-1-ol, 25 C
  log K of transfer, gas to solvent: 3.39 log10 K
[2]; Perfluoroalkane, 25 C
  log K of transfer, gas to solvent: 2.54 log10 K
[2]; Propan-1-ol, 25 C
  log K of transfer, gas to solvent: 3.17 log10 K
[2]; Propan-2-ol, 25 C
  log K of transfer, gas to solvent: 3.17 log10 K
[2]; Propanone, 25 C
  log K of transfer, gas to solvent: 3.23 log10 K
[2]; Propionitrile, 25 C
  log K of transfer, gas to solvent: 3.05 log10 K
[2]; Tetrahydrofuran, 25 C
  log K of transfer, gas to solvent: 3.85 log10 K
[2]; Toluene, 25 C
  log K of transfer, gas to solvent: 3.94 log10 K
[2]; Water, 25 C
  log K of transfer, gas to solvent: -2.11 log10 K
[3]; 1,2-Dichloroethane, 25 C
  log K of transfer, water to solvent: 5.55 log10 K
[3]; 2-Methylpropan-2-ol, 25 C
  log K of transfer, water to solvent: 5.5 log10 K
[3]; 3-Methylbutan-1-ol, 25 C
  log K of transfer, water to solvent: 5.51 log10 K
[3]; Acetone, 25 C
  log K of transfer, water to solvent: 5.34 log10 K
[3]; Acetonitrile, 25 C
  log K of transfer, water to solvent: 4.79 log10 K
[3]; Benzene, 25 C
  log K of transfer, water to solvent: 6.03 log10 K
[3]; Butan-1-ol, 25 C
  log K of transfer, water to solvent: 5.37 log10 K
[3]; Butanone, 25 C
  log K of transfer, water to solvent: 5.56 log10 K
[3]; Butyronitrile, 25 C
  log K of transfer, water to solvent: 5.32 log10 K
[3]; CCl4, 25 C
  log K of transfer, water to solvent: 6.16 log10 K
[3]; Chlorobenzene, 25 C
  log K of transfer, water to solvent: 6.1 log10 K
[3]; Chloroform, 25 C
  log K of transfer, water to solvent: 6.01 log10 K
[3]; Cyclohexane, 25 C
  log K of transfer, water to solvent: 6.18 log10 K
[3]; Cyclohexanone, 25 C
  log K of transfer, water to solvent: 5.53 log10 K
[3]; Decan-1-ol, 25 C
  log K of transfer, water to solvent: 5.43 log10 K
[3]; Di-n-butyl ether, 25 C
  log K of transfer, water to solvent: 5.96 log10 K
[3]; Dichloromethane, 25 C
  log K of transfer, water to solvent: 5.83 log10 K
[3]; Diethyl Ether, 25 C
  log K of transfer, water to solvent: 6.03 log10 K
[3]; Ethanol, 25 C
  log K of transfer, water to solvent: 5.28 log10 K
[3]; Hexadecane, 25 C
  log K of transfer, water to solvent: 5.78 log10 K
[3]; Hexane, 25 C
  log K of transfer, water to solvent: 6.08 log10 K
[3]; Methanol, 25 C
  log K of transfer, water to solvent: 4.93 log10 K
[3]; Octan-1-ol(dry), 25 C
  log K of transfer, water to solvent: 5.41 log10 K
[3]; Pentan-1-ol, 25 C
  log K of transfer, water to solvent: 5.5 log10 K
[3]; Perfluoroalkane, 25 C
  log K of transfer, water to solvent: 4.65 log10 K
[3]; Propan-1-ol, 25 C
  log K of transfer, water to solvent: 5.28 log10 K
[3]; Propan-2-ol, 25 C
  log K of transfer, water to solvent: 5.28 log10 K
[3]; Propionitrile, 25 C
  log K of transfer, water to solvent: 5.16 log10 K
[3]; Tetrahydrofuran, 25 C
  log K of transfer, water to solvent: 5.96 log10 K
[3]; Toluene, 25 C
  log K of transfer, water to solvent: 6.05 log10 K
